Assay results taken from PubChem BioAssay (NCI).
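Growth conditions: 96-well plates. Treatment: test compound, 48 hours, 5 concentrations. Analysis: linear interpolation between bracketing concentrations; unreached endpoints set to highest concentration. At the GI50, growth is halved. TGI: total growth inhibition.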

Key:
Assay in all cases: inhibition of tumour cell growth, NCI panel, 48 h
SN12C renal = test system: SN12C renal
CAKI-1 renal = test system: CAKI-1 renal
UO-31 renal = test system: UO-31 renal
HOP-92 NSCLC = test system: HOP-92 NSCLC
HCC-2998 colon = test system: HCC-2998 colon
MOLT-4 leukemia = test system: MOLT-4 leukemia
MDA-MB-231 breast = test system: MDA-MB-231 breast
SK-MEL-2 melanoma = test system: SK-MEL-2 melanoma
SF-539 CNS = test system: SF-539 CNS
SW-620 colon = test system: SW-620 colon

| Structure (SMILES) | TGI (SN12C renal) [µM] | TGI (CAKI-1 renal) [µM] | TGI (UO-31 renal) [µM] | TGI (HOP-92 NSCLC) [µM] | TGI (HCC-2998 colon) [µM] | TGI (MOLT-4 leukemia) [µM] | TGI (MDA-MB-231 breast) [µM] | TGI (SK-MEL-2 melanoma) [µM] | TGI (SF-539 CNS) [µM] | TGI (SW-620 colon) [µM] | GI50 (SN12C renal) [µM] | GI50 (CAKI-1 renal) [µM] | GI50 (UO-31 renal) [µM] | GI50 (HOP-92 NSCLC) [µM] | GI50 (HCC-2998 colon) [µM] | GI50 (MOLT-4 leukemia) [µM] | GI50 (MDA-MB-231 breast) [µM] | GI50 (SK-MEL-2 melanoma) [µM] | GI50 (SF-539 CNS) [µM] | GI50 (SW-620 colon) [µM] |
| --- | --- | --- | --- | --- | --- | --- | --- | --- | --- | --- | --- | --- | --- | --- | --- | --- | --- | --- | --- | --- |
| C1CSCCCSCCSCCCSC1 | > 100 | > 100 | > 100 | > 100 | > 100 | > 100 | > 100 | > 100 | > 100 | > 100 | – | – | – | – | – | – | – | – | – | – |
| COc1cc(/C=C\[N+](=O)[O-])ccc1OCc1ccccc1 | 8.42 | 13.2 | 3.06 | 31.4 | 3.63 | 7.61 | 5.55 | 14.6 | 4.18 | 4.02 | 2.77 | 3.05 | 1.54 | 12.5 | 1.86 | 2.7 | 1.85 | 3.67 | 2.09 | 1.49 |
| CCOC(=O)C(=Cc1ccccc1[N+](=O)[O-])C(=O)OCC | 11.3 | 14.3 | 15.9 | 8.8 | 10.7 | 34.5 | 7.59 | 11.9 | 9.32 | 4.85 | 2.85 | 3.61 | 4.52 | 3.67 | 3.48 | 3.55 | 2.48 | 4.01 | 3.55 | 2.12 |
| C=C1C(=O)OC2CC1C(O)C/C(C)=C/CC/C(C)=C/C(O)CC2C (configuration not stated) | 4.83 | 8.39 | 6.66 | 4.17 | 4.21 | 3.11 | 12.4 | 12.2 | 6.55 | 5.62 | – | – | – | – | – | – | – | – | – | – |
| CC[C@@]1(O)C(=O)NCc2c1cc1n(c2=O)Cc2cc3c(N)cccc3nc2-1 | 35.2 | 5.51 | 7.12 | > 84.1 | 9.24 | 16.6 | > 60.3 | > 17.7 | 10.9 | > 100 | 0.529 | 0.981 | 0.866 | 8.64 | 2.04 | 0.301 | 16.4 | 9.29 | 1.04 | 4.16 |
| O=c1[nH]c(=O)n(C2OC(CO)C(O)C2O)c2c1CCCC2 (configuration not stated) | > 100 | > 100 | > 100 | > 100 | > 100 | > 100 | > 100 | > 100 | > 100 | > 100 | – | – | – | – | – | – | – | – | – | – |
| N#Cc1cnc2cc(OC[C@@H](O)CO)c(NC(=O)CC3CSSC3)cc2c1Nc1ccc(OCc2cccc(F)c2)c(Cl)c1 | 0.49 | 18.9 | 5.5 | 2.06 | 0.506 | 0.174 | 0.237 | 0.286 | 1.47 | 0.87 | 0.144 | 6.34 | 1.63 | 0.919 | 0.164 | 0.0736 | 0.104 | 0.117 | 0.725 | 0.216 |
| C=C1C(=O)O[C@H]2[C@H]1CC/C(COC(=O)NCc1ccc(Cn3c(=O)sn(CCCCl)c3=O)cc1)=C\CC[C@@]1(C)O[C@@H]21 | 3.15 | 5.33 | 2.75 | 2.47 | 21.4 | 5.41 | 3.33 | 17.4 | 3.3 | 3.31 | 1.36 | 2.05 | 1.4 | 1.1 | 7.83 | 1.5 | 1.72 | 4.83 | 1.74 | 1.23 |
| O=C(c1ccc2ncc(-c3nc(NC4CC4)ncc3F)n2c1)N1CCOCC1 | 11.8 | 62.8 | 13.6 | 6.86 | 8.99 | 7.1 | 8.98 | 3.81 | 4.79 | > 100 | 2.52 | 1.33 | 2.66 | 1.93 | 3.01 | 2.48 | 2.4 | 1.66 | 1.8 | 2.91 |
| OCC1OC(n2ccc3c(NO)ncnc32)C(O)C1O (configuration not stated) | 1.61 | 0.403 | 0.502 | 0.608 | 1 | 0.477 | – | 0.429 | 1.29 | 3.23 | 0.212 | 0.0472 | 0.0536 | 0.154 | 0.25 | 0.153 | 0.233 | 0.155 | 0.288 | 0.0895 |
| COCCOC(=O)NC(=O)Nc1ccc(/C(=N/O)c2ccc(Cl)cc2)cc1 | 59.3 | > 100 | 26.5 | 44.1 | 7.04 | 7.76 | 11 | 29 | 0.341 | > 100 | 0.157 | – | 0.284 | 1.4 | 0.2 | 0.109 | 0.166 | – | 0.121 | 0.109 |
| Clc1ccc2[nH]cc(-c3nc(-c4c[nH]c5ncccc45)cs3)c2c1 | 20.9 | 11.2 | 28.2 | 8.6 | 21.8 | 25.6 | 17.1 | 23.7 | 21.2 | 11.6 | 4.78 | 1.73 | 1.36 | 2.24 | 4.63 | 2.73 | 2.2 | 6.51 | 4.97 | 3.08 |
| O=C(Nc1ccc(F)cc1)c1c(NC(=O)C(F)(F)F)sc2c1CCCCC2 | 8.67 | 5.17 | 6.9 | 1.38 | 10 | 15.2 | 7.3 | 6.75 | 11.8 | 11.9 | 1.94 | 1.35 | 1.87 | 0.269 | 2.06 | 2.65 | 1.75 | 1.47 | 2.04 | 2.51 |
| Cc1nc2ccc(Nc3nc(NCCN4CCOCC4)nc(Nc4ccc(F)cc4)n3)cc2n1Cc1ccccc1 | > 100 | 65 | 8.2 | 6.48 | 6.23 | 10.9 | 3.71 | 4.61 | 3.23 | 10.7 | 5.57 | 2.55 | 1.78 | 1.59 | 2.74 | 2.7 | 1.71 | 2.16 | 1.63 | 3.24 |
| Cn1c(=O)c(Oc2ccccc2F)cc2cnc(NC3CCOCC3)nc21 | > 25 | > 25 | > 25 | 22.8 | > 25 | > 25 | > 25 | > 25 | > 25 | > 25 | > 25 | > 25 | > 14.4 | 1.25 | > 25 | > 25 | > 25 | > 25 | > 25 | > 25 |
| N#Cc1c(-c2ccccc2)cc(-c2ccc(Nc3nc(Nc4ccc(Cl)cc4)nc(Nc4ccc(Cl)cc4)n3)cc2)nc1N | > 100 | 30.4 | 2.33 | 3.86 | 35.5 | 4.53 | 4.89 | 3.44 | 3.24 | 4.82 | 3.37 | 11.8 | 1.1 | 1.06 | 7 | 1.62 | 1.76 | 1.54 | 1.69 | 1.91 |
| Cc1nc2sc(C(=O)Nc3cccc4ccccc34)c(N)c2cc1C(=O)c1ccccc1 | > 50 | > 50 | > 50 | > 50 | > 50 | > 50 | > 50 | > 50 | 2.71 | > 50 | 2.98 | 1.62 | 2.11 | 6.82 | 1.52 | 2.27 | 2.19 | 3.92 | 1.06 | 1.71 |
| COc1ccccc1NC(=O)n1nc(N)c2ccccc21 | > 100 | > 100 | > 100 | 76.5 | > 100 | > 100 | > 100 | > 100 | > 100 | > 100 | > 100 | > 100 | > 63.3 | 22.7 | > 81.4 | 67.4 | 66 | > 100 | 58.4 | > 100 |
| OCCSCc1ccccc1 | > 100 | > 100 | > 100 | > 100 | > 100 | > 100 | > 100 | > 100 | > 100 | > 100 | – | – | – | – | – | – | – | – | – | – |
| Cc1cc(C)c(C[N+](C)(C)C)c(C)c1C | 23.4 | > 26 | 42.8 | 13.5 | 12.4 | > 52.9 | 25.8 | 5.04 | 4.86 | > 100 | 0.212 | 0.281 | 0.333 | 0.285 | 0.521 | 0.349 | 0.471 | 0.654 | 0.292 | 0.32 |
| O=C(NCCCNc1cc(-c2cn(-c3ccccc3)nc2-c2cccc(O)c2)ccn1)c1ccccc1 | > 100 | 15.3 | 23.6 | 24.5 | 3.69 | 3.78 | 5.4 | 13.7 | 10.3 | 6.15 | 6 | 2.48 | 2.36 | 1.7 | 1.92 | 1.41 | 2.34 | 3.42 | 3.02 | 2.36 |
| CC/C=C\C[C@H](O)C/C=C1/C(=O)C=C[C@@H]1C/C=C\CCCC(=O)N(C)C | 10.9 | 2.67 | 2.93 | 7.12 | 3.2 | 12.8 | 8.95 | 7.13 | 7.14 | 6.16 | 2.6 | 1.22 | 1.41 | 2.56 | 1.77 | 2.78 | 3.12 | 2.5 | 2.18 | 0.851 |
| CCCCCCCCCCN(CCCCCCCCCC)CC(=O)c1ccc2cc(Br)c3ccccc3c2c1 | 3.33 | 4.43 | 7.2 | 5.12 | 3.16 | 6.2 | 3.26 | 3.48 | 3.7 | 3.75 | 1.6 | 1.7 | 1.86 | 1.88 | 1.73 | 2.66 | 1.67 | 1.84 | 2.05 | 1.87 |
| C[C@]1(CO)[C@H]2CC[C@@]34C=C[C@@](CO)(CC[C@H]3[C@]2(C)CC[C@H]1O)C4 | > 100 | > 100 | > 100 | > 100 | > 100 | 48.9 | > 100 | > 100 | > 100 | > 100 | – | – | – | – | – | – | – | – | – | – |
| O=c1nc(Nc2cccc(Cl)c2)oc2cc(Cl)oc(=O)c12 | > 100 | 21.5 | 21.7 | 19.5 | 27.5 | 16.3 | 30.9 | 4.61 | 21 | 29.9 | 10.4 | 5.93 | 5.46 | 5.01 | 13.4 | 3.24 | 5.78 | 2.02 | 4 | 10.9 |
